The test system of the experiment is subjects with Acute Migraines. In words: BHV3000-302 Phase 3 trial, acute treatment of migraine: efficacy. It counts as in vivo, human. The following applies: Study 302; P<0.0001. How it is done: Clinical Trial—BHV3000-302: Phase 3: Double-Blind, Randomized, Placebo-Controlled, Safety and Efficacy Trial of BHV-3000 (Rimegepant) for the Acute Treatment of Migraine (ClinicalTrials.gov Identifier: NCT03237845) • A phase 3 clinical study was conducted with 1503 participants, as follows. […] Pain Freedom of rimegepant (75 mg tablet) compared with placebo in the acute treatment of migraine will be measured using the number of evaluable subjects that report no pain at 2 hours post-dose. [Time Frame: Two hours post dose] • Pain will be measured on a 4 point Likert scale (0=none, 1=mild, 2=moderate, 3=severe) • 2. Freedom from the most bothersome symptom (MBS) of rimegepant (75 mg tablet) compared with placebo will be measured using the number of evaluable subjects that report the absence of their MBS at 2 hours post-dose. […] The MBS (nausea, phonophobia or photophobia) will measured using a binary scale (0=absent, 1=present). […] [Time Frame: 2 hours-24 hours post-dose] • Sustained Pain Freedom as measured by a 4 point numeric rating scale (None, Mild, Moderate, Severe) • 2. […] [Time Frame: 2 hours post-dose] • Pain Relief as measured by a 4 point numeric rating scale (None, Mild, Moderate, Severe) • 5. […] [Time Frame: 2 hours-48 hours post-dose] • Sustained Pain Freedom as measured by a 4 point numeric rating scale (None, Mild, Moderate, Severe) • 8. […]

Molecules are shown by their SMILES.

This is an account of results in patent US20210000814A1, “RIMEGEPANT FOR CGRP RELATED DISORDERS” (Biohaven Pharmaceutical Holding Company Ltd., priority 2018, published 2021).

With `N[C@@H]1c2cccnc2[C@H](OC(=O)N2CCC(n3c(=O)[nH]c4ncccc43)CC2)CC[C@H]1c1cccc(F)c1F` [Rimegepant, [(55,65,9R)-5-amino-6-(2,3-difluorophenyl)-6,7,8,9-tetrahydro-5H-cyclohepta[b]pyridin-9-yl]4-(2-oxo-3H-imidazo[4,5-b]pyridin-1-yl)piperidine-1-carboxylate], the “patients achieving normal function at 2 hours (functional disability) versus placebo” value is listed as “greater proportion”.
